Entries after “also recorded” stand apart in the source; their conditions may differ. Where two headings read alike, the source gives them in different places.
Assays:
[1] = system: tobacco mosaic virus (TMV); assay: TMV replication in intact Nicotiana glutinosa plants (local lesions); assay type: in vivo; settings: for Percent TMV Inhibition: 2 × 10^-5 M in infecting solution, 48 hr after infection, half-leaves of N. glutinosa
Description: Carborundum (400 mesh) was sprinkled lightly onto leaves. Solutions containing 0.2 micrograms per ml of TMV and 2×10^-5 M 2',5'-phosphorothioate oligoadenylate in phosphate buffer were applied onto half-leaves of N. glutinosa with either a gloved finger or with a pipettor. The remaining half-leaves were controls (inoculated with the buffer solution containing TMV, but no active compound). The infection was allowed to proceed 48 h under continuous illumination of about 1500 Lx at which time local virus lesions appeared. Inhibition of TMV replication was calculated as the percent of local lesions produced in 2',5'-phosphorothioate oligoadenylate-treated half-leaves compared to control half-leaves.
^4 Inhibition of TMV replication was detected 48 hr after infection
and was calculated as the percent of local lesions produced in treated
halfleaves of N. glutinosa compared to control halfleaves.

[2] = system: RNase L; assay: rRNA cleavage assay using L929 cell extracts (28S and 18S rRNA); assay type: biochemical, mouse; settings: L929 cell extracts; '>' = no activation at that concentration
Description: Activation of RNase L by 2',5'-phosphorothioate adenylate trimer cores and their 5'-monophosphates was also measured in an rRNA cleavage assay using L929 cell extracts.
The corresponding 5'-monophosphates pARp ARp A, pASp ARp A (at 10^-8 M) and pARp ASp A (at 10^-7 M) activated RNase L to cleave 28S and 18S rRNA.

[3] = system: HIV reverse transcriptase; assay: HIV reverse transcriptase activity; assay type: biochemical, HIV (HTLV-IIIB); settings: for Percent Inhibition of HIV reverse transcriptase / Reverse Transcriptase Activity: 200 uM; for Reverse Transcriptase Activity: control 187×10^3 cpm (reactions 1-4), 273×10^3 cpm (reactions 5-13)
Description: HIV reverse transcriptase (RNA-dependent DNA nucleotidyl-transferase) activity was assayed by a modification of the procedure of Poiesz et al. (Poiesz, B. J., Ruscetti , F. W., Gazdar, A. F., Bunn, P. S., Minna, J. D., and Gallo, R. C., Proc. Natl. Acad. Sci. U.S.A. 77: 7415-7419 (1980)).
Cultured H-9 cells are grown at 10^6 cells/ml in RPMI-1640 medium and 20% heat-inactivated fetal calf serum. Cell suspensions are centrifuged (1000×g, 10 min.) and the supernatant is removed. Virus particles are precipitated from this cell-free supernatant to which 0.3 ml of 4M NaCl and 3.6 ml of 30% (weight/volume) polyethylene glycol are added. The suspension is placed on ice for 2 hr following centrifugation at 15,000×g for 30 min at 0° C. The precipitate is resuspended in 200 microliters of 50% glycerol (vol./vol.)/25 mM Tris-HCl (pH 7.5)/5 mM dithiothreitol/50 mM KCl/0.025% Triton X-100. Virus particles are lysed by the addition of 100 microliters of 0.9% Triton X-100/1.5M KCl. Reverse transcriptase assays are performed at 37° C. for 1 hr with 10 microliters of the lysed virus solution in a final reaction volume of 100 microliters containing: 40 mM Tris-HCl (pH 7.8), 4 mM dithiothreitol, 45 mM KCl and 2.5 micrograms of template primer [poly(A)-dT15, 0.5 micrograms/microliter] (with a signal Mg^++ concentration of 10 mM). At this time, 10 microliters of the 2',5'-phosphorothioate oligoadenylate is added to a final concentration of 200 micromolar. Reaction mixtures also contain 4 micromoles of [^3 H]dTTP. Reactions are stopped by the addition of cold 5% trichloroacetic acid and filtered through nitrocellulose discs. The discs are dried and the radioactivity bound to the discs is determined. Reverse transcriptase activity is expressed as the percent relative to a control.
The compounds were assayed in the above manner in two sets, each set having a separate set of controls. The compounds of reactions 1-4 were assayed against control #1, which was 187×10^3 cpm. The compounds used in reactions 5-13 were assayed against control #2, which was 273×10^3 cpm.

[4] = system: RNase L; assay: Core-cellulose assay: activation of partially-purified RNase L to hydrolyze poly(U)-3'-[32P]pCp; assay type: biochemical, mouse; settings: poly(U)-3'-[32P]pCp substrate
Description: FIG. 1B represents the results of a core-cellulose assay indicating the ability of the 2',5'-phosphorothioate adenylate trimer cores and 5'-monophosphates to activate partially-purified RNase L from L929 cell extracts to hydrolyze the substrate polY(U)-3'-[^32 P]pCp. Activation of RNase L was determined by conversion of poly (U )-3'-[^32 P]pCp to acid-soluble fragments. 100% represents 30,000 cpm of labelled poly(U)-3'-[^32 P]pCp bound to glass fiber filters. The curves are labelled in the same manner as FIG. 1A.
The 2',5'-phosphorothioate cores, with one exception, have the correct stereoconfiguration to activate RNase L. The activation of partially-purified RNase L by the 2',5'-phosphorothioates was measured according to the core-cellulose assay of Silverman, Analyt. Biochem. 144:450-460 (1985) which relies on hydrolysis of the substrate poly(U)-3-[^32 P]pCp. […] (FIG. 1B) The order of activation of the trimer cores and the corresponding 5'-monophosphates is: RpRp>SpRp>RpSp (FIG. 1B).

[5] = system: phosphodiesterases; assay: Metabolic stability, general statements; assay type: in vitro ADME
[6] = system: RNase L; assay: Activation or inhibition of RNase L, general statements without assay named; assay type: biochemical
[7] = system: 2'-phosphodiesterase (2'-PDE), L cell extract; assay: Hydrolysis by 2'-phosphodiesterase in L cell extract; assay type: in vitro ADME
From the text: The four 2,5-phosphorothioate adenylate trimer cores were further characterized by hydrolysis with the enzyme 2'-phosphodiesterase ("2'-PDE"), an exoribonuclease found in L cell extract The enzyme cleaves from the 2'/3'-terminus.
(§1) The metabolic stability of the 2,5'-phosphorothioate dimer and trimer cores is markedly greater than authentic 2-5A. The rate of hydrolysis of the trimer cores by the 3'-exonuclease SVPD is, in order of decreasing stability: ASp ARp A>ARp ARp A>>>A3. […] The 3'->'5'direction of stepwise cleavage by SVPD is blocked by an Sp configuration, preventing cleavage of the upstream adjacent phosphorothioate linkage. […] With both SVPD and 2'-PDE, the dimer cores (either ARp A or ASp A) accumulate following hydrolysis of the ARp ARp A, ASp ARp A and ARp ASp A trimer cores. Hydrolysis of the 2-5A molecule by SVPD and 2'-PDE proceeds from the 2'/3'-terminus. Therefore, introduction of the phosphorothioate group into the trimer core results in the accumulation of the ARp A or ASp A dimer cores from the 5'-terminus and the accumulation of AMPS from the 2'/3'-terminus (Table 3). With authentic A3, there is no detectable accumulation of A2 following hydrolysis by SVPD or 2'-PDE.

[8] = system: serum phosphodiesterases; assay: Hydrolysis by serum phosphodiesterases
[9] = system: SVPD; assay: Hydrolysis by SVPD (snake venom phosphodiesterase); assay type: in vitro ADME
Description: It is known that the enzyme SVPD preferentially cleaves Rp-3',5'- or 2',5'-phosphorothioate linkages from the 2'/3'-terminus. Nelson et al, J. Org. Chem. 49:2314-2317 (1984); Eppstein et al, J. Biol. Chem. 261:5999-6003 (1986); Lee et al, Biochemistry 24:551-555 (1985). SVPD hydrolysis of the chemically synthesized dimer core ARp A yielded adenosine and AMPS in a molar ratio of 1:1, respectively; the half-life was 3 hours (Table 3).
as §1

Substance | Percent TMV Inhibition [1] [%] | concentration at which RNase L was activated to cleave 28S and 18S rRNA [2] | Percent Inhibition of HIV reverse transcriptase [3] [%] | Reverse Transcriptase Activity [3] | activation of RNase L, core-cellulose assay (result in words) [4] | metabolic stability (result in words) [5] | inhibition of TMV replication (result in words) ([1]; in vivo) | inhibition of HIV reverse transcriptase (result in words) [3] | effect on RNase L activation (result in words) [6] | half life, hydrolysis by L cell extract [7] [days] | hydrolysis by serum phosphodiesterases (result in words) [8] | hydrolysis by SVPD (result in words) [9] | hydrolysis by SVPD (result in words) ([9]; listed as ARp ASp A)
5'-O-Phosphoryl-(Rp)-thioadenylyl-(2'-5')-(Rp)-thioadenylyl-(2'-5')-adenosine [pARp ARp A] | 75 | 10^-8 M | 25 | 144 10^3 cpm | most efficient activator of RNase L | metabolically unstable and is readily attacked by phosphodiesterases |  |  |  |  |  |  | 
5'-O-Phosphoryl-(Sp)-thioadenylyl-(2'-5')-(Sp)-thioadenylyl-(2'-5')-adenosine [pASp ASp A] | 40 | > 10^-5 M | 15 | 232 10^3 cpm |  | metabolically stable to specific and non-specific phosphodiesterases | inhibit HIV reverse transcriptase activity and tobacco mosaic virus replication | inhibit HIV reverse transcriptase activity and tobacco mosaic virus replication | selectively inhibits activation of RNase L at physiological concentrations; also recorded: metabolically stable inhibitor of RNase L; also recorded: most effective inhibitor of RNase L reported to date |  |  |  | 
(Rp)-P-Thioadenylyl-(2'-5')-(Sp)-P-thiodenylyl-(2'-5')-adenosine [Compound 10A] | 70 | > 10^-4 M | 10 | 247 10^3 cpm |  | metabolicly stable |  |  | activates RNase L | 20 | not cleaved | not substrates for SVPD; also recorded: not cleaved | not substrates of SVPD
